Conditions: Liquid

CCCCCC[n+]1ccn(C)c1.O=S(=O)([N-]S(=O)(=O)C(F)(F)F)C(F)(F)F
Conditions | mass density, 372.5 K [kg/m3] | mass density, 373.15 K [kg/m3] | mass density, 392.7 K [kg/m3] | mass density, 412.7 K [kg/m3] | mass density, 432.6 K [kg/m3] | mass density, 452.3 K [kg/m3] | viscosity, 373.15 K [mPa·s]
100 kPa, Bellows volumetry | – | – | 1286.8 | 1269.8 | 1252.4 | 1235.6 | –
101.33 kPa, Concentric cylinders viscometry | – | – | – | – | – | – | 7.434
101.33 kPa, Vibrating tube method | – | 1304.7 | – | – | – | – | –
10000 kPa, Bellows volumetry | – | – | 1296.8 | 1280.4 | 1263.7 | 1247.6 | –
20000 kPa, Bellows volumetry | – | – | 1306.3 | 1290.4 | 1274.3 | 1258.8 | –
30000 kPa, Bellows volumetry | – | – | 1315.1 | 1299.8 | 1284.2 | 1269.2 | –
40000 kPa, Bellows volumetry | – | – | 1323.4 | 1308.4 | 1293.3 | 1278.8 | –
50000 kPa, Bellows volumetry | – | – | 1331.1 | 1316.5 | 1301.7 | 1287.6 | –
60000 kPa, Bellows volumetry | – | – | 1338.5 | 1324.3 | 1309.7 | 1295.9 | –
70000 kPa, Bellows volumetry | – | – | 1345.4 | 1331.5 | 1317.3 | 1303.9 | –
80000 kPa, Bellows volumetry | – | – | 1352.1 | 1338.5 | 1324.5 | 1311.3 | –
90000 kPa, Bellows volumetry | – | – | 1358.3 | 1345 | 1331.2 | 1318.3 | –
100000 kPa, Bellows volumetry | – | – | 1364.5 | 1351.3 | 1337.8 | 1325.1 | –
110000 kPa, Bellows volumetry | – | – | 1370.3 | 1357.5 | 1344.1 | 1331.8 | –
120000 kPa, Bellows volumetry | – | – | 1376 | 1363.2 | 1350.3 | 1338 | –
130000 kPa, Bellows volumetry | – | – | 1381.5 | 1368.9 | 1356.1 | 1344.1 | –
140000 kPa, Bellows volumetry | 1399.4 | – | 1386.8 | 1374.3 | 1361.9 | 1349.9 | –
150000 kPa, Bellows volumetry | 1404.4 | – | 1391.9 | 1379.8 | 1367.3 | 1355.5 | –
160000 kPa, Bellows volumetry | 1409.3 | – | 1397 | 1384.9 | 1372.4 | 1360.8 | –
170000 kPa, Bellows volumetry | 1414 | – | 1401.8 | 1389.9 | 1377.5 | 1366.2 | –
180000 kPa, Bellows volumetry | 1418.5 | – | 1406.5 | 1394.7 | 1382.5 | 1371.3 | –
190000 kPa, Bellows volumetry | 1423.1 | – | 1411.1 | 1399.4 | 1387.4 | 1376.4 | –
200000 kPa, Bellows volumetry | 1427.4 | – | 1415.7 | 1404 | 1392.2 | 1381.2 | –
